Where “and” joins values, the source holds several entries; their conditions need not be identical. Equal values may be shown once.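 Method: 48-hour compound exposure of cells in 96-well plates, five concentrations, linear interpolation of endpoints. GI50 is the concentration that inhibits growth by half.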 Calls of active or inactive are those of the source. Rule as the data show it: active = GI50 up to about 1.1 µM and inactive = higher.
How the values were obtained:
Test in all cases: NCI tumour cell line growth inhibition, 48 h
786-0 = system: 786-0
SK-MEL-2 = system: SK-MEL-2
NCI/ADR-RES = system: NCI/ADR-RES
NCI-H23 = system: NCI-H23
KM12 = system: KM12
RXF 393 = system: RXF 393
DLD-1 = system: DLD-1
OVCAR-8 = system: OVCAR-8
HOP-62 = system: HOP-62
SK-OV-3 = system: SK-OV-3
HOP-18 = system: HOP-18
SW-620 = system: SW-620
DMS-273 = system: DMS-273
SF-268 = system: SF-268
MOLT-4 = system: MOLT-4
HOP-92 = system: HOP-92
RXF 631 = system: RXF 631
SNB-75 = system: SNB-75
NCI-H460 = system: NCI-H460
EKVX = system: EKVX
LOX IMVI = system: LOX IMVI
A549 = system: A549
A498 = system: A498
KM-20L2 = system: KM-20L2
SK-MEL-28 = system: SK-MEL-28
SK-MEL-5 = system: SK-MEL-5
UACC-257 = system: UACC-257
M19-MEL = system: M19-MEL
ACHN = system: ACHN
IGROV-1 = system: IGROV-1
OVCAR-5 = system: OVCAR-5
NCI-H226 = system: NCI-H226
HCT-15 = system: HCT-15
HL-60 = system: HL-60
HCC 2998 = system: HCC 2998
SF-295 = system: SF-295
NCI-H522 = system: NCI-H522
OVCAR-3 = system: OVCAR-3
CAKI-1 = system: CAKI-1
HT-29 = system: HT-29
SNB-19 = system: SNB-19
TK-10 = system: TK-10
UACC-62 = system: UACC-62
K562 = system: K562
HCT-116 = system: HCT-116
CCRF-CEM = system: CCRF-CEM
SNB-78 = system: SNB-78
RPMI-8226 = system: RPMI-8226
OVCAR-4 = system: OVCAR-4
Malme-3M = system: Malme-3M
LXFL 529 = system: LXFL 529
SR = system: SR
SN12C = system: SN12C
COLO 205 = system: COLO 205
SF-539 = system: SF-539
M14 = system: M14
UO-31 = system: UO-31
DMS-114 = system: DMS-114
U-251 = system: U-251

COC1=C(C)C(=O)C2=C(C1=O)C(CO)N1C(C#N)C3CC4C(C1C2N1CCOC41)N3C (configuration not stated)
GI50 (786-0): 20 nM (active) and 26.8 nM (active)
GI50 (SK-MEL-2): 15.8 nM (active) and 19.4 nM (active)
GI50 (NCI/ADR-RES): 22.6 nM (active) and 31.5 nM (active)
GI50 (NCI-H23): 35.2 nM (active) and 39.1 nM (active)
GI50 (KM12): 58.8 nM (active) and 80.7 nM (active)
GI50 (RXF 393): 20.9 nM (active) and 20.6 nM (active)
GI50 (DLD-1): 0.00706 µM (active)
GI50 (OVCAR-8): 30.3 nM (active) and 19.3 nM (active)
GI50 (HOP-62): 270 nM (active) and 166 nM (active)
GI50 (SK-OV-3): 164 nM (active) and 261 nM (active)
GI50 (HOP-18): 0.132 µM (active)
GI50 (SW-620): < 14.6 nM (active) and 16.4 nM (active)
GI50 (DMS-273): 0.02 µM (active)
GI50 (SF-268): 78.5 nM (active) and 85.9 nM (active)
GI50 (MOLT-4): 0.0128 µM (active)
GI50 (HOP-92): 24.1 nM (active) and < 16.9 nM (active)
GI50 (RXF 631): 0.167 µM (active)
GI50 (SNB-75): 20.6 nM (active) and 39.5 nM (active)
GI50 (NCI-H460): 90.8 nM (active) and 150 nM (active)
GI50 (EKVX): 314 nM (active) and 305 nM (active)
GI50 (LOX IMVI): 11.6 nM (active) and < 14.1 nM (active)
GI50 (A549): 354 nM (active) and 321 nM (active)
GI50 (A498): 0.146 µM (active)
GI50 (KM-20L2): 0.0617 µM (active)
GI50 (SK-MEL-28): 51.8 nM (active) and 52 nM (active)
GI50 (SK-MEL-5): 50.7 nM (active) and 29.9 nM (active)
GI50 (UACC-257): 26.2 nM (active) and 27.7 nM (active)
GI50 (M19-MEL): 0.0492 µM (active)
GI50 (ACHN): 64.1 nM (active) and 38.8 nM (active)
GI50 (IGROV-1): 45.1 nM (active) and 32.4 nM (active)
GI50 (OVCAR-5): 262 nM (active) and 241 nM (active)
GI50 (NCI-H226): 99.3 nM (active) and 57.9 nM (active)
GI50 (HCT-15): < 0.01 µM and 0.0144 µM
GI50 (HL-60): 0.0133 µM (active)
GI50 (HCC 2998): 72.4 nM (active) and 60.3 nM (active)
GI50 (SF-295): 292 nM (active) and 179 nM (active)

COc1cc(C=O)c(-c2c(C=O)ccc3c2OCO3)c(OC)c1OC
GI50 (786-0): > 100 µM (inactive)
GI50 (NCI-H522): 88.5 µM (inactive)
GI50 (OVCAR-3): 72.6 µM (inactive)
GI50 (SK-MEL-2): > 100 µM (inactive)
GI50 (CAKI-1): 31.9 µM (inactive)
GI50 (NCI-H23): > 100 µM (inactive)
GI50 (HT-29): 69.2 µM (inactive)
GI50 (SNB-19): 49.8 µM (inactive)
GI50 (TK-10): > 100 µM (inactive)
GI50 (KM12): 78.3 µM (inactive)
GI50 (UACC-62): 62.5 µM (inactive)
GI50 (K562): 37.2 µM (inactive)
GI50 (HCT-116): > 100 µM (inactive)
GI50 (CCRF-CEM): 33.8 µM (inactive)
GI50 (DLD-1): > 100 µM (inactive)
GI50 (OVCAR-8): > 100 µM (inactive)
GI50 (HOP-62): > 100 µM (inactive)
GI50 (SK-OV-3): > 100 µM (inactive)
GI50 (HOP-18): > 100 µM (inactive)
GI50 (SW-620): 38.2 µM (inactive)
GI50 (SNB-78): > 100 µM (inactive)
GI50 (DMS-273): 72.6 µM (inactive)
GI50 (RPMI-8226): 56.5 µM (inactive)
GI50 (OVCAR-4): > 100 µM (inactive)
GI50 (Malme-3M): 67.3 µM (inactive)
GI50 (SF-268): 89.3 µM (inactive)
GI50 (MOLT-4): 76.2 µM (inactive)
GI50 (RXF 631): > 100 µM (inactive)
GI50 (SNB-75): 55.2 µM (inactive)
GI50 (LXFL 529): > 100 µM (inactive)
GI50 (SR): 29.6 µM (inactive)
GI50 (NCI-H460): > 100 µM (inactive)
GI50 (EKVX): > 100 µM (inactive)
GI50 (SN12C): > 100 µM (inactive)
GI50 (LOX IMVI): 54.6 µM (inactive)
GI50 (A549): > 100 µM (inactive)
GI50 (COLO 205): 64.9 µM (inactive)
GI50 (A498): > 100 µM (inactive)
GI50 (KM-20L2): > 100 µM (inactive)
GI50 (SK-MEL-28): 74.6 µM (inactive)
GI50 (SK-MEL-5): > 100 µM (inactive)
GI50 (SF-539): > 100 µM (inactive)
GI50 (M14): 74.1 µM (inactive)
GI50 (UACC-257): > 100 µM (inactive)
GI50 (M19-MEL): 61.4 µM (inactive)
GI50 (UO-31): > 100 µM (inactive)
GI50 (ACHN): > 100 µM (inactive)
GI50 (IGROV-1): > 100 µM (inactive)
GI50 (DMS-114): > 100 µM (inactive)
GI50 (U-251): 70.1 µM (inactive)
GI50 (OVCAR-5): > 100 µM (inactive)
GI50 (NCI-H226): > 100 µM (inactive)
GI50 (HCT-15): 80.4 µM
GI50 (HL-60): 26.7 µM (inactive)
GI50 (HCC 2998): > 100 µM (inactive)
GI50 (SF-295): 60.4 µM (inactive)

From ChEMBL document CHEMBL1201862, “PubChem BioAssay data set” (2004)
